Consider 68 compounds from article doi:10.1101/2021.10.07.463234v2 (biorxiv, 2021).

Counter-ions that a name gives are not always drawn.

In one experiment the target is SARS-CoV-2 Mac1 (Severe acute respiratory syndrome coronavirus 2, UniProt P0DTD1). Briefly: biochemical. The settings on record: 100 µM; inhibitor.
Broadly, the %inhibition is the relative decrease from the control value, in per cent. A high value points to a strong effect. For the compound `O=C1CN(/N=C/c2ccc(-c3ccc([N+](=O)[O-])cc3)o2)C(=O)N1` [Dantrolene sodium], the “%inhibition” value is reported as 11.92%.
Regarding `Cc1cc(NS(=O)(=O)c2ccc(N)cc2)no1` [Sulfamethoxazole sodium], the “%inhibition” value came to 0%.
Take `C#Cc1cccc(Nc2ncnc3cc(OCCOC)c(OCCOC)cc23)c1` [Erlotinib HCl (OSI-744)]: the “%inhibition” value is given as 12.32%.
Same read-out and setting: to `O=C1CN(/N=C/c2ccc(-c3ccc([N+](=O)[O-])cc3)o2)C(=O)N1` [Dantrolene sodium hemiheptahydrate] belongs 2.991%; to `NC(=NCCCCCCN=C(N)/N=C(\N)Nc1ccc(Cl)cc1)/N=C(\N)Nc1ccc(Cl)cc1` [Chlorhexidine?2HCl], 7.76%; to `CCN(C)C(=O)Oc1cccc([C@H](C)N(C)C)c1` [Rivastigmine], 0%.
With `COc1cc2nc(N3CCN(C(=O)C4CCCO4)CC3)nc(N)c2cc1OC` (centres unmarked) [Terazosin HCl Dihydrate], the “%inhibition” value was found to be 6.293%.
With `Cc1ccc(Nc2nccc(N(C)c3ccc4c(C)n(C)nc4c3)n2)cc1S(N)(=O)=O` [Pazopanib], the “%inhibition” value was 12.94%.
Consider `Cc1ccc(C(=O)c2ccc(CC(=O)O)n2C)cc1` [Tolmetin Sodium], for which the “%inhibition” value is reported as 0.1982%.
Same read-out and setting: then `Clc1ccc(CCC(Cn2ccnc2)Sc2c(Cl)cccc2Cl)cc1` (centres unmarked) [Butoconazole nitrate], with 4.358%; and `Nc1ccn([C@@H]2O[C@H](CO)[C@@H](O)C2(F)F)c(=O)n1` [Gemcitabine HCl], with 0%.

The experiment is the same for the next values; noted with them: read-out: %inhibition.
Usually inhibition stands for the percentage by which the read-out fell short of the control. For the compound `CNCCCN1c2ccccc2CCc2ccccc21` [Desipramine Hydrochloride], the inhibition at 100 µM turned out to be 15.3%.
The same measure, in the same setting: to `O=C(O)C1=C(CSc2nnnn2CS(=O)(=O)O)CS[C@@H]2[C@H](NC(=O)[C@H](O)c3ccccc3)C(=O)N12` [Cefonicid sodium] belongs 0%; to `NC(CO)C(=O)NNCc1ccc(O)c(O)c1O` (centres unmarked) [Benserazide HCl], 7.42%.
The same measure, in the same setting: then `O=C(Cn1ccnc1[N+](=O)[O-])NCc1ccccc1` [Benznidazole], with 0%.
Still for that read-out and setting: then `CCCc1nc(C(C)(C)O)c(C(=O)OCc2oc(=O)oc2C)n1Cc1ccc(-c2ccccc2-c2nnn[nH]2)cc1` [Olmesartan Medoxomil], with 0%.
Regarding `CC(=O)O[C@]1(C(C)=O)CC[C@H]2[C@@H]3C=C(Cl)C4=CC(=O)[C@@H]5C[C@@H]5[C@]4(C)[C@H]3CC[C@@]21C` [Cyproterone Acetate], the inhibition at 100 µM worked out at 0%.
On the same count and under the same terms, to `CCCN1CCCC[C@H]1C(=O)Nc1c(C)cccc1C` [Ropivacaine] belongs 0%; to `O=C(O)C[C@H](O)C[C@H](O)/C=C/c1c(C2CC2)nc2ccccc2c1-c1ccc(F)cc1` [Pitavastatin Calcium], 13.3%.
Still for that read-out and setting: then `O=C(NC[C@H]1CN(c2ccc(N3CCOCC3=O)cc2)C(=O)O1)c1ccc(Cl)s1` [Rivaroxaban], with 4.28%; and `CC1=C(C(=O)O)N2C(=O)[C@@H](NC(=O)[C@H](N)c3ccccc3)[C@H]2SC1` [Cephalexin], with 0%.
The same measure, in the same setting: then `CC(C(=O)O)c1ccc2c(c1)CC(=O)c1ccccc1S2` (centres unmarked) [Zaltoprofen], with 16.4%; and `CC1(C)S[C@@H]2[C@H](NC(=O)[C@H](NC(=O)N3CCNC3=O)c3ccccc3)C(=O)N2[C@H]1C(=O)O` [Azlocillin sodium salt], with 0%; and `COC(=O)[C@@H]1CC2=CC(=O)CC[C@]2(C)[C@@]23O[C@@H]2C[C@@]2(C)[C@@H](CC[C@@]24CCC(=O)O4)[C@H]13` [Eplerenone], with 3.58%.
As to `CC(=O)c1ccc(S(=O)(=O)NC(=O)NC2CCCCC2)cc1` [Acetohexamide], the inhibition at 100 µM worked out at 17.8%.
Same read-out and setting: then `CNC[C@H](O)c1cccc(O)c1` [Phenylephrine HCl], with 14.5%.
Same read-out and setting: to `CNCc1cc(-c2ccccc2F)n(S(=O)(=O)c2cccnc2)c1` [Vonoprazan Fumarate (TAK-438)] belongs 0%.
Same read-out and setting: then `CC[C@H]1OC(=O)C[C@@H](O)[C@H](C)[C@@H](O[C@@H]2O[C@H](C)[C@@H](O[C@H]3C[C@@](C)(O)[C@@H](O)[C@H](C)O3)[C@H](N(C)C)[C@H]2O)[C@@H](CC=O)C[C@@H](C)C(=O)/C=C/C(C)=C/[C@@H]1CO[C@@H]1O[C@H](C)[C@@H](O)[C@@H](OC)[C@H]1OC` [Tylosin tartrate], with 0%; and `CC1(C)[C@@H](O)CC[C@]2(C)[C@H]3C(=O)C=C4[C@@H]5C[C@@](C)(C(=O)O)CC[C@]5(C)CC[C@@]4(C)[C@]3(C)CC[C@@H]12` [Enoxolone], with 0%.
`Cc1ccc(C(C)C)c(O)c1` [Thymol]: the inhibition at 100 µM came out at 0.387%.
The same measure, in the same setting: to `CC(=O)[C@H]1CC[C@H]2[C@@H]3CCC4=CC(=O)CC[C@]4(C)[C@H]3CC[C@]12C` [Progesterone] belongs 1.73%; to `Cc1cn([C@H]2C=C[C@@H](CO)O2)c(=O)[nH]c1=O` [Stavudine (d4T)], 0%.
With `CCOC(=O)[C@H](CCc1ccccc1)N[C@@H](C)C(=O)N1Cc2cc(OC)c(OC)cc2C[C@H]1C(=O)O` [Moexipril HCl], the inhibition at 100 µM is 0%.
As for `Nc1ccc(S(=O)(=O)Nc2ccnn2-c2ccccc2)cc1` [Sulfaphenazole], the inhibition at 100 µM was 0%.
Same read-out and setting: to `CCn1cc(C(=O)O)c(=O)c2cnc(N3CCNCC3)nc21` [Pipemidic acid] belongs 0%; to `COc1cc([C@@H]2c3cc4c(cc3[C@@H](O[C@@H]3O[C@@H]5CO[C@@H](C)O[C@H]5[C@H](O)[C@H]3O)[C@H]3COC(=O)[C@H]23)OCO4)cc(OC)c1O` [Etoposide], 25.5%; to `OCCN1C[C@H](O)[C@@H](O)[C@H](O)[C@H]1CO` [Miglitol], 11%.
For `COc1ccc(C2CNC(=O)C2)cc1OC1CCCC1` (centres unmarked) [Rolipram], the inhibition at 100 µM turned out to be 0%.
In the case of `NS(=O)(=O)c1cc(Cl)c(Cl)c(S(N)(=O)=O)c1` [Dichlorphenamide (Diclofenamide)], the inhibition at 100 µM stood at 3.01%.
On to `CCCCC1=NC2(CCCC2)C(=O)N1Cc1ccc(-c2ccccc2-c2nnn[nH]2)cc1` [Irbesartan], for which the inhibition at 100 µM was determined as 2.32%.
For the compound `Cc1nnc(SCC2=C(C(=O)O)N3C(=O)[C@@H](NC(=O)Cn4cnnn4)[C@H]3SC2)s1` [Cefazolin Sodium], the inhibition at 100 µM is 2.52%.
Same read-out and setting: then `NC(=O)[C@@H]1CCCN1C(=O)[C@H](Cc1c[nH]cn1)NC(=O)[C@@H]1CCC(=O)N1` [Protirelin], with 0%; and `CN1C(=O)COc2c(C(=O)NC3CN4CCC3CC4)cc(Cl)cc21` (centres unmarked) [Azasetron HCl], with 0%.
Same read-out and setting: to `NC(=O)c1cccnc1` [Nicotinamide (Vitamin B3)] belongs 16%; to `CC(CCc1ccc(O)cc1)NCC(O)c1ccc(O)cc1` (centres unmarked) [Ractopamine HCl], 0%.
On the same count and under the same terms, to `CCN1CCC[C@H]1CNC(=O)c1cc(S(N)(=O)=O)ccc1OC` [Levosulpiride] belongs 0%; to `O=C(O)/C=C/C(=O)O` [Fumaric acid], 1.89%; to `N/N=c1\[nH][nH]/c(=N\N)c2ccccc12` [Dihydralazine sulphate], 45.1%.
In the case of `COc1ccc2c(O[C@@H]3C[C@H]4C(=O)N[C@]5(C(=O)NS(=O)(=O)C6CC6)C[C@H]5/C=C\CCCCN(C)C(=O)[C@@H]4C3)cc(-c3nc(C(C)C)cs3)nc2c1C` [Simeprevir], the inhibition at 100 µM was 11.4%.
The same measure, in the same setting: then `COc1ccc([C@@H]2Sc3ccccc3N(CCN(C)C)C(=O)[C@@H]2OC(C)=O)cc1` [Diltiazem HCl], with 25.7%; and `CC(C)Nc1cc(-c2c[nH]c(C(=O)N[C@H](CO)c3cccc(Cl)c3)c2)c(Cl)cn1` [Ulixertinib (BVD-523, VRT752271)], with 24.8%.
On to `FC(F)(F)c1ccc(CNc2ccc(Cc3c[nH]c4ncc(Cl)cc34)cn2)cn1` [Pexidartinib (PLX3397)], for which the inhibition at 100 µM was determined as 0.21%.
Still for that read-out and setting: to `CCCCC(CC)COC(=O)C(C#N)=C(c1ccccc1)c1ccccc1` (centres unmarked) [Octocrylene] belongs 0%; to `CNC[C@@H](O)c1ccc(O)c(O)c1` [L-Adrenaline], 31.6%.
Same read-out and setting: to `c1ccc2c(c1)Nc1ccccc1S2` [Phenothiazine] belongs 18.2%; to `Cc1cncc(CN2CCC(=C3c4ccc(Cl)cc4CCc4cccnc43)CC2)c1` [Rupatadine Fumarate], 24.3%.
The same measure, in the same setting: then `CC1CC(OC(=O)C(O)c2ccccc2)CC(C)(C)C1` (centres unmarked) [Cyclandelate], with 0%; and `C[C@@H]1CC[C@H]2[C@@H](C)C(=O)O[C@@H]3O[C@@]4(C)CC[C@@H]1[C@]32OO4` [Artemisinin], with 10.9%.
`C[C@]12CCC(=O)C=C1[C@@H]1C[C@@H]1[C@H]1[C@@H]3[C@@H]4C[C@@H]4[C@@]4(CCC(=O)O4)[C@@]3(C)CC[C@@H]12` [Drospirenone]: the inhibition at 100 µM came out at 0%.
Same read-out and setting: to `C[C@H](O)C(=O)Nc1c(I)c(C(=O)NC(CO)CO)c(I)c(C(=O)NC(CO)CO)c1I` [Iopamidol] belongs 0%; to `O=c1oc2ccccc2c(O)c1Cc1c(O)c2ccccc2oc1=O` [Dicoumarol], 13.4%; to `CC1(C)S[C@@H]2[C@H](NC(=O)Cc3ccccc3)C(=O)N2[C@H]1C(=O)O` [Penicillin G Sodium], 5.64%.
On the same count and under the same terms, then `Cc1cc(=O)n(-c2ccccc2)n1C` [Antipyrine], with 8.75%; and `COc1ccc2c3c1O[C@H]1C[C@@H](O)C=C[C@@]31CCN(C)C2` [Galanthamine HBr], with 0%.
Take `C[N+](C)(C)CCCCCC[N+](C)(C)C` [Hexamethonium?Dibromide]: the inhibition at 100 µM stood at 0%.
On the same count and under the same terms, to `CCCC(=O)O` [Sodium butyrate] belongs 0%; to `CN1CCN2c3ncccc3Cc3ccccc3C2C1` (centres unmarked) [Mirtazapine], 7.99%.
Consider `CN(Cc1cc(Br)cc(Br)c1N)C1CCCCC1` [Bromhexine HCl], for which the inhibition at 100 µM was 0%.
